Like-named read-outs stand apart in the source and are kept apart here.
Columns and labels:
[1] = test system: Sava lectin (Savalithsin) from Savalia (Gerardia) savaglia, isoforms SEQ ID NOs: 1, 2, 3 and 4; experiment: Differential scanning calorimetry (DSC) of Sava lectin in the presence of carbohydrates; assay type: binding; settings: for Melting point (Tm) of Sava lectin in the presence of carbohydrate: PBS pH 7.4, Sava lectin alone Tm 79.17° C.
Experimental: Experiments with differential scanning calorimetry confirmed binding of mannose and methyl mannoside, see discussion of thermal stability below.
Thermal stability was determined by differential scanning calorimetry (DSC). Experiments were performed in PBS at pH 7.4. […] Increased Tm indicates stabilization of protein structure in the presence of bound carbohydrate.

[2] = biological target: Sava lectin (Savalithsin) from Savalia (Gerardia) savaglia, isoforms SEQ ID NOs: 1, 2, 3 and 4; experiment: Microscale thermophoresis (MST) of carbohydrate binding to Sava lectin
Description: Microscale thermophoresis (MST) experiments confirmed binding of mannose and methyl mannoside. […] Two Km values indicate existence of two binding sites that could be different of allosterically connected.

[3] = test system: Sava lectin (Savalithsin) from Savalia (Gerardia) savaglia, isoforms SEQ ID NOs: 1, 2, 3 and 4; experiment: Isothermal titration calorimetry (ITC) of carbohydrate binding to Sava lectin; settings: pH 7.4, 50 mM PBS, 25° C.
Description: The present inventors have identified, purified and characterised a novel lectin from Savalia (Gerardia) savaglia. The inventors have identified four very closely-related isoforms of this lectin (see Table 1). The sequences of the isoforms are provided as SEQ ID NOs: 1, 2, 3 and 4. SEQ ID NO: 1 is the sequence of the most prevalent (dominant) form expressed in Savalia (Gerardia) savaglia (as determined by mass spectrometry). […] The lectin may be referred to herein as Sava lectin or Savalithsin. This term may be used to refer to a mixture comprising the four isoforms, which may optionally include other isoforms or variants as defined herein. References to recombinantly produced Savalithsin typically refer to the dominant form.
Isothermal titration calorimetry (ITC) experiments were performed with Sava lectin at pH 7.4 in 50 mM phosphate buffered saline (PBS) at 25° C. and in the presence of different D-carbohydrates (mono- and di-saccharides).
Thermodynamic parameters of mannose and methyl mannoside binding were obtained by algorithm for global fitting of the model function to the experimental ITC thermograms based on the iterative non-linear Levenberg-Marquardt χ2 regression procedure. The best agreement between model and experimental data was achieved when two binding sites per protein molecule were assumed.

[4] = test system: Sava lectin (Savalithsin) from Savalia (Gerardia) savaglia, isoforms SEQ ID NOs: 1, 2, 3 and 4; experiment: Turbidimetric activity assay of carbohydrate binding to Sava lectin
Experimental: Turbidimetric activity assay was performed to confirm ITC results. […] This small binding constant produces small heat effect that cannot be observed by ITC.

[5] = biological target: the molecule itself; experiment: MALDI-TOF mass spectrometry of Sava lectin (self-association, oligomers) [top]

With `OC[C@H]1OC(O)[C@@H](O)[C@@H](O)[C@@H]1O` (stereo partly drawn) [D-mannose] the “Melting point (Tm) of Sava lectin in the presence of carbohydrate” value [1] was 79.63 °C, the Kd ([2]; first of two binding events, read-out: Dissociation constant (Kd), first binding event) was 0.0265 mM and the Kd ([2]; second of two binding events, read-out: Dissociation constant (Kd), second binding event) was 11.2 mM. For the same molecule, the “Binding constant (Kb)” value [3] was 2514 M⁻¹.

`C[C@@H]1OC(O)[C@@H](O)[C@H](O)[C@@H]1O` (stereo partly drawn) [fucose] was tested, and the “Binding observed using ITC” value [3] was “did not observed binding”.

For `OC[C@H]1O[C@H](OC[C@H]2O[C@H](O[C@]3(CO)O[C@H](CO)[C@@H](O)[C@@H]3O)[C@H](O)[C@@H](O)[C@@H]2O)[C@H](O)[C@@H](O)[C@H]1O` [raffinose], the “Binding observed using ITC” value [3] was “did not observed binding”.

`OC[C@H]1OC(O)[C@H](O)[C@@H](O)[C@H]1O` (stereo partly drawn) [galactose] was tested, and the “Tm of Sava lectin in the presence of carbohydrate, compared with Sava lectin only” value ([1]; PBS pH 7.4) was “the same as in the experiment with Sava lectin only” and the “Binding observed using ITC” value [3] was “did not observed binding”.

In the case of `CC(=O)N[C@H]1C(O)O[C@H](CO)[C@@H](O)[C@@H]1O` (stereo partly drawn) [N-acetyl glucosamine], the “Binding observed using ITC” value [3] is reported as “did not observed binding”.

For `OC[C@@H](O)[C@@H](O)[C@H](O)[C@H](O)CO` [mannitol], the “Binding observed using ITC” value [3] was “did not observed binding”.

With `O=C[C@@H](O)[C@H](O)[C@H](O)CO` [arabinose] the “Binding observed using ITC” value [3] was “did not observed binding”.

In the case of `CC(=O)N[C@H]1C(O)O[C@H](CO)[C@H](O)[C@@H]1O` (stereo partly drawn) [N-acetyl galactosamine], the “Binding observed using ITC” value [3] is reported as “did not observed binding”.

For `OC[C@H]1O[C@@H](O[C@H]2[C@H](O)[C@@H](O)C(O)O[C@@H]2CO)[C@H](O)[C@@H](O)[C@H]1O` (stereo partly drawn) [lactose], the “Binding observed using ITC” value [3] was “did not observed binding”.

In the case of `C[C@@H]1OC(O)[C@H](O)[C@H](O)[C@H]1O` (stereo partly drawn) [rhamnose], the “Binding observed using ITC” value [3] is reported as “did not observed binding”.

For `OC[C@H]1OC(O)[C@H](O)[C@@H](O)[C@@H]1O` (stereo partly drawn) [D-glucose], the “Binding (turbidimetric activity assay)” value [4] was “weak binding”, the “Binding constant compared with D-mannose” value ([4]; relative to D-mannose) was “two orders of magnitude lower than for D-mannose” and the “Binding observed using ITC” value [3] was “did not observed binding”.

`CO[C@H]1O[C@H](CO)[C@@H](O)[C@H](O)[C@@H]1O` [methyl alpha-D-mannoside] was tested, and the “Melting point (Tm) of Sava lectin in the presence of carbohydrate” value [1] was 79.55 °C, the Kd ([2]; read-out: Dissociation constant (Kd)) was 13.2 mM and the “Binding constant (Kb)” value [3] was 1270 M⁻¹.

B1: Sava lectin (isolated and purified from the coral Savalia (Gerardia) savaglia) (other)
chain: SNLRWVATSGGKVPEHAVVGGENFSGEVLYVARVRINSGLTPGKMAPSYRVAHTSYGGKEFYKSDYELITNPGWKSHIEWKYHEGHSKPTNAVLGGTDQRNLYVARFMYGDGHMLSGKVLFDYGKAYLGYNNKEYESTKFYVLVEHPSW
notes: No glycosylation or other post-translational modification was observed; also called Savalithsin
B1: binds [5].

Reference: patent publication US20260184749A1, “CARBOHYDRATE BINDING POLYPEPTIDE OF SAVALIA SAVAGLIA” (University of Belgrade, priority 2021, published 2026)
